For series [1], the system named is Human immunodeficiency virus 1. Kind of series: Inhibition of His-tagged HIV-1 integrase C56S, W131D, F185K and […] mutant at 20 uM by fluorescence anisotropy. (In general: In fluorescence polarisation assays a small probe gives low polarisation when free and higher when bound to something large.)
Series [2] deals with Human immunodeficiency virus 1. As to the kind of experiment: Antiviral activity against wild type HIV1 infected in human H9 cells assessed as p24 protein expression pre-incubated with cells for 2 hrs at 12.5 uM measured after 6 days post infection using single dose study. Type of series: functional. As to conditions: for inhibition at 12.5 µM: Human immunodeficiency virus 1, H9.

Series [3] is described as follows: Binding affinity to His-tagged HIV-1 integrase C56S, W131D, F185K and […] mutant by fluorescence anisotropy. Also noted: species or system Human immunodeficiency virus 1.
Series [4] can be described thus: Stability in trypsin and chymotrypsin extract assessed as duration showing initiation of compound degradation at 37 degC by mass spectrometry. Type of series: ADME.
Series [5] relates to Human immunodeficiency virus 1. Kind of series: Antiviral activity against wild type HIV1 infected in human H9 cells assessed as p24 protein expression pre-incubated with cells for 2 hrs at 12.5 uM measured after 8 days post infection using single dose study. As to conditions: for inhibition at 12.5 µM: Human immunodeficiency virus 1, H9. Format: functional.
Series [6] relates to Human immunodeficiency virus 1. As to the kind of experiment: Antiviral activity against wild type HIV1 infected in human H9 cells assessed as p24 protein expression pre-incubated with cells for 2 hrs at 12.5 uM measured after 6 days post infection using multiple dose study wherein additional dose was added every 2 days. Type of series: functional. Particulars: for inhibition at 12.5 µM: Human immunodeficiency virus 1, H9.

In series [7] the test system is Human immunodeficiency virus 1. Kind of series: Antiviral activity against wild type HIV1 infected in human H9 cells assessed as p24 protein expression pre-incubated with cells for 2 hrs at 12.5 uM measured after 8 days post infection using multiple dose study wherein additional dose was added every 2 days. Format: functional. As to conditions: for inhibition at 12.5 µM: Human immunodeficiency virus 1, H9.

pKd: −log10 of the molar value. Active and inactive are the calls of the source. The calls are words filed in the database; no cut-off is given here. Starred links: 1 amine or outer side, 2 acyl side, 3 side chain; linkers in the order of their positions; H or OH if unused. Positions of bridges follow the written chain, without caps; N, C: chain ends. Non-standard residues stand in square brackets, D forms with d. Residues, ends and D or L forms follow the SMILES beside them. ξ: configuration not given here. X1 = NC(CC(=O)[*:1])C(=O)[*:2]; ξOrn = NCCCC(N)C(=O)O; Nlys = NCCCCNCC(=O)O; ξK = NCCCCC(N)C(=O)O

By inhibition is commonly meant the change of the read-out against control, counted positive when it falls. For orientation: pKd means −log10 of the Kd, conventionally taken in molar units.

In turn, `CC[C@H](C)[C@@H]1NC(=O)[C@H](CCCCN)NC(=O)[C@H](CC(C)C)NC(=O)[C@H](CO)NC(=O)[C@H](CC(N)=O)NC(=O)[C@H](Cc2c[nH]c3ccccc23)NC(=O)CC(N)C(=O)NCCCCN(CC(N)=O)C(=O)[C@H](C(C)C)NC(=O)[C@H](CC(=O)O)NC(=O)[C@H](CC(C)C)NC(=O)[C@H](CC(N)=O)NC(=O)[C@H](CC(=O)O)NC1=O` (stereo partly drawn) (WNSLKIDNLDV[Nlys]-NH2; linker N-12 via X1) returned an inhibition in series [1] of 90%. Moreover, the inhibition at 12.5 µM in series [2] and in series [5] was 90% throughout. Besides, the pKd in series [3] is 5.30. Also, the Stability in series [4] was 150 min. Besides, the inhibition result in series [6] and in series [7] was “Active” each time.
With `CC[C@H](C)[C@@H]1NC(=O)[C@H](CCCCN)NC(=O)[C@H](CC(C)C)NC(=O)[C@H](CO)NC(=O)[C@H](CC(N)=O)NC(=O)[C@H](Cc2c[nH]c3ccccc23)NC(=O)CC(N)C(=O)NCCCCC(C(N)=O)NC(=O)[C@H](C(C)C)NC(=O)[C@H](CC(=O)O)NC(=O)[C@H](CC(C)C)NC(=O)[C@H](CC(N)=O)NC(=O)[C@H](CC(=O)O)NC1=O` (stereo partly drawn) (WNSLKIDNLDV[ξK]-NH2; linker N-12 via X1), the inhibition in series [1] worked out at 55%. For the same compound, the inhibition at 12.5 µM amounted to 80% in series [2], 65% in series [5], 85% in series [6] and 85% in series [7]. Further, the pKd in series [3] is 5.60. In addition, the Stability in series [4] stood at 150 min.
On to `CC[C@H](C)[C@@H]1NC(=O)[C@H](CCCCN)NC(=O)[C@H](CC(C)C)NC(=O)[C@H](CO)NC(=O)[C@H](CC(N)=O)NC(=O)[C@H](Cc2c[nH]c3ccccc23)NC(=O)CC(N)C(=O)NCCCC(C(N)=O)NC(=O)[C@H](C(C)C)NC(=O)[C@H](CC(=O)O)NC(=O)[C@H](CC(C)C)NC(=O)[C@H](CC(N)=O)NC(=O)[C@H](CC(=O)O)NC1=O` (stereo partly drawn) (WNSLKIDNLDV[ξOrn]-NH2; linker N-12 via X1), for which the inhibition in series [1] was 50%. The inhibition at 12.5 µM in series [2] turned out to be 25%; in series [5], 25%; in series [6], 40%; in series [7], 40%. In series [3], this compound showed a negative logarithm of the Kd (pKd) of 5.70. Moreover, the Stability in series [4] amounted to 150 min.
H-WNSLKIDNLDV-OH returned an inhibition in series [1] of 83%. Further, the inhibition result in series [2] and in series [5] was “inactive” in each case. The compound also had a pKd in series [3] of 5.29. In addition, the Stability in series [4] turned out to be 30 min. Moreover, the inhibition entry in series [6] and in series [7] was “Active” throughout.

The values above are taken from ChEMBL document CHEMBL2016519, “A comparative study of backbone versus side chain peptide cyclization: application for HIV-1 integrase inhibitors” (Bioorg Med Chem, 2012).
